Source: patent US10344025B2, “GLS1 inhibitors for treating disease” (Board of Regents, The University of Texas System, priority 2014, dated 2019)
pEC50, pIC50: −log10 of the molar value.

Tests used:
A549 cells = assay: Proliferation Assay (A549 viability, Cell Titer Fluor, 72 hours); type: cell-based; conditions: Homo sapiens
Procedure, shortened: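 A549 cells seeded at 1000 cells/well, rested 24 h, then exposed to compound in 0.5% DMSO for 72 h at 37 °C. Viability read by Cell Titer Fluor fluorescence; IC50 from four-parameter logistic fit.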

[1] = molecular target: purified recombinant human GAC (GLS1) (Homo sapiens (Human), UniProt O94925); assay: GLS1 Enzymatic Activity Assay (dual-coupled enzymatic assay, resorufin/Amplex UltraRed readout); type: biochemical;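 further: glutamate from GAC coupled via glutamate oxidase and peroxidase to resorufin, read as fluorescence (ex 530, em 590 nm) kinetically or at 20 min, four-parameter logistic IC50 fit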
Chain of purified recombinant human GAC (GLS1) (O94925 other isoform, or with tags, fused parts or gaps): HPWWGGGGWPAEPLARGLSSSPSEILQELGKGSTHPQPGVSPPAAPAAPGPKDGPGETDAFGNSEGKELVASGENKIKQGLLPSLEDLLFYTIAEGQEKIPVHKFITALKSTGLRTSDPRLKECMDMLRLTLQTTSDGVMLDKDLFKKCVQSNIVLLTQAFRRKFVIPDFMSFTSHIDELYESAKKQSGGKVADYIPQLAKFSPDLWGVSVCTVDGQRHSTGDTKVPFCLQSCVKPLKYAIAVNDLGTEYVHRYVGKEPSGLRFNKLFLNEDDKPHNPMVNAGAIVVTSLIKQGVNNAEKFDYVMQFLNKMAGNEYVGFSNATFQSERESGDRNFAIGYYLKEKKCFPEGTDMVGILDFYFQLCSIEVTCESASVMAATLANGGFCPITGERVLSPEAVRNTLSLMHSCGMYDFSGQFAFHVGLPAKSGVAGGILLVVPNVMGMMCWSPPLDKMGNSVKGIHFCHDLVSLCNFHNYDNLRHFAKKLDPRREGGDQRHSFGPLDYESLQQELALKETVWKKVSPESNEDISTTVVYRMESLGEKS

| pEC50 (A549 cells; A549, 72 h) | pIC50 [1] | Structure (SMILES) | pEC50 (A549 cells) |
| --- | --- | --- | --- |
| > 7.00 | > 7.00 | Cc1ccc(CNC(=O)c2cn(CCC(F)Cn3cc(C(=O)NCc4cc(OC(F)(F)F)ccc4F)nn3)nn2)cn1 (stereo not drawn) [Example 370, 1-{3-fluoro-4-[4-({[2-fluoro-5-(trifluoromethoxy)phenyl]methyl}carbamoyl)-1H-1,2,3-triazol-1-yl]butyl}-N-[(6-methylpyridin-3-yl)methyl]-1H-1,2,3-triazole-4-carboxamide] | – |
| 6.30 to 7.00 | > 7.00 | O=C(CN1CC(F)C1)Nc1cn(CC(F)CCn2cc(C(=O)NCc3cccc(OC(F)(F)F)c3)nn2)nn1 (stereo not drawn) [Example 371, 1-(3-fluoro-4-{4-[2-(3-fluoroazetidin-1-yl)acetamido]-1H-1,2,3-triazol-1-yl}butyl)-N-{[3-(trifluoromethoxy)phenyl]methyl}-1H-1,2,3-triazole-4-carboxamide] | – |
| > 7.00 | > 7.00 | O=C(NCc1ccccn1)c1cn(CCC(F)Cn2cc(C(=O)NCc3cc(OC(F)(F)F)ccc3F)nn2)nn1 (stereo not drawn) [Example 373, 1-{3-fluoro-4-[4-({[2-fluoro-5-(trifluoromethoxy)phenyl]methyl}carbamoyl)-1H-1,2,3-triazol-1-yl]butyl}-N-(pyridin-2-ylmethyl)-1H-1,2,3-triazole-4-carboxamide] | – |
| > 7.00 | > 7.00 | O=C(Cc1cc(OC(F)(F)F)ccc1F)Nc1cn(CC(F)CCn2cc(C(=O)NCc3ccccn3)nn2)nn1 (stereo not drawn) [Example 375, 1-[3-fluoro-4-(4-{2-[2-fluoro-5-(trifluoromethoxy)phenyl]acetamido}-1H-1,2,3-triazol-1-yl)butyl]-N-(pyridin-2-ylmethyl)-1H-1,2,3-triazole-4-carboxamide] | – |
| > 7.00 | > 7.00 | Cc1ccc(CNC(=O)c2cn(CCC(F)Cn3cc(NC(=O)Cc4cc(OC(F)(F)F)ccc4F)nn3)nn2)cn1 (stereo not drawn) [Example 376, 1-[3-fluoro-4-(4-{2-[2-fluoro-5-(trifluoromethoxy)phenyl]acetamido}-1H-1,2,3-triazol-1-yl)butyl]-N-[(6-methylpyridin-3-yl)methyl]-1H-1,2,3-triazole-4-carboxamide] | – |
| > 7.00 | > 7.00 | O=C(Cc1cc(OC(F)(F)F)ccc1F)Nc1cn(CC(F)CCn2cc(C(=O)NCc3cc(OC(F)(F)F)ccc3F)nn2)nn1 (stereo not drawn) [Example 377, 1[3-fluoro-4-(4-{2-[2-fluoro-5-(trifluoromethoxy)phenyl]acetamido}-1H-1,2,3-triazol-1-yl)butyl]-N-{[2-fluoro-5-(trifluoromethoxy)phenyl]methyl}-1H-1,2,3-triazole-4-carboxamide] | – |
| > 7.00 | > 7.00 | O=C(Cc1cc(OC(F)(F)F)ccc1F)Nc1cn(CC(F)CCn2cc(C(=O)NCc3ncccc3F)nn2)nn1 (stereo not drawn) [Example 378, 1-[3-fluoro-4-(4-{2-[2-fluoro-5-(trifluoromethoxy)phenyl]acetamido}-1H-1,2,3-triazol-1-yl)butyl]-N-[(3-fluoropyridin-2-yl)methyl]-1H-1,2,3-triazole-4-carboxamide] | – |
| > 7.00 | > 7.00 | O=C(Cc1cc(OC(F)(F)F)ccc1F)Nc1cn(CC(F)CCn2cc(C(=O)NCc3cccc(OC(F)(F)F)c3)nn2)nn1 (stereo not drawn) [Example 379, 1-[3-fluoro-4-(4-{2-[2-fluoro-5-(trifluoromethoxy)phenyl]acetamido}-1H-1,2,3-triazol-1-yl)butyl]-N-{[3-(trifluoromethoxy)phenyl]methyl}-1H-1,2,3-triazole-4-carboxamide] | – |
| > 7.00 | > 7.00 | O=C(Cc1cc(OC(F)(F)F)ccc1F)Nc1cn(CCCCn2cc(C(=O)NCc3cccc(OC(F)(F)F)c3)nn2)nn1 [Example 380, 1-[4-(4-{2-[2-fluoro-5-(trifluoromethoxy)phenyl]acetamido}-1H-1,2,3-triazol-1-yl)butyl]-N-{[3-(trifluoromethoxy)phenyl]methyl}-1H-1,2,3-triazole-4-carboxamide] | – |
| > 7.00 | > 7.00 | O=C(Cc1cc(OC(F)(F)F)ccc1F)Nc1cn(CCCCn2cc(C(=O)NCc3cc(OC(F)(F)F)ccc3F)nn2)nn1 [Example 381, 1-[4-(4-{2-[2-fluoro-5-(trifluoromethoxy)phenyl]acetamido}-1H-1,2,3-triazol-1-yl)butyl]-N-{[2-fluoro-5-(trifluoromethoxy)phenyl]methyl}-1H-1,2,3-triazole-4-carboxamide] | – |
| 6.30 to 7.00 | > 7.00 | O=C(Cc1cc(OC(F)(F)F)ccc1F)Nc1cn(CCCCn2cc(C(=O)NCc3ncccc3F)nn2)nn1 [Example 382, 1-[4-(4-{2-[2-fluoro-5-(trifluoromethoxy)phenyl]acetamido} 1H-1,2,3-triazol-1-yl)butyl]-N-[(3-fluoropyridin-2-yl)methyl]-1H-1,2,3-triazole-4-carboxamide] | – |
| > 7.00 | > 7.00 | Cc1ccc(CNC(=O)c2cn(CCCCn3cc(NC(=O)Cc4cc(OC(F)(F)F)ccc4F)nn3)nn2)cn1 [Example 383, 1-[4-(4-{2-[2-fluoro-5-(trifluoromethoxy)phenyl]acetamido}-1H-1,2,3-triazol-1-yl)butyl]-N-[(6-methylpyridin-3-yl)methyl]-1H-1,2,3-triazole-4-carboxamide] | – |
| > 7.00 | > 7.00 | O=C(Cc1cc(OC(F)(F)F)ccc1F)Nc1cn(CCCCn2cc(C(=O)NCc3cc(Cl)ccc3F)nn2)nn1 [Example 384, N-[(5-chloro-2-fluorophenyl)methyl]-1-[4-(4-{2-[2-fluoro-5-(trifluoromethoxy)phenyl]acetamido}-1H-1,2,3-triazol-1-yl)butyl]-1H-1,2,3-triazole-4-carboxamide] | – |
| > 7.00 | > 7.00 | O=C(Cc1cc(Cl)ccc1F)Nc1cn(CCCCn2cc(C(=O)NCc3cccc(OC(F)(F)F)c3)nn2)nn1 [Example 385, 1-(4-{4-[2-(5-chloro-2-fluorophenyl)acetamido]-1H-1,2,3-triazol-1-yl}butyl)-N-{[3-(trifluoromethoxy)phenyl]methyl}-1H-1,2,3-triazole-4-carboxamide] | – |
| > 7.00 | > 7.00 | O=C(Cc1cc(Cl)ccc1F)Nc1cn(CCCCn2cc(C(=O)NCc3cc(OC(F)(F)F)ccc3F)nn2)nn1 [Example 386, 1-(4-{4-[2-(5-chloro-2-fluorophenyl)acetamido]-1H-1,2,3-triazol-1-yl}butyl)-N-{[2-fluoro-5-(trifluoromethoxy)phenyl]methyl}-1H-1,2,3-triazole-4-carboxamide] | – |
| 5.30 to 6.30 | 6.30 to 7.00 | O=C(Cc1cc(Cl)ccc1F)Nc1cn(CCCCn2cc(C(=O)NCc3ncccc3F)nn2)nn1 [Example 387, 1-(4-{4-[2-(5-chloro-2-fluorophenyl)acetamido]-1H-1,2,3-triazol-1-yl}butyl)-N-[(3-fluoropyridin-2-yl)methyl]-1H-1,2,3-triazole-4-carboxamide] | – |
| 6.30 to 7.00 | > 7.00 | Cc1ccc(CNC(=O)c2cn(CCCCn3cc(NC(=O)Cc4cc(Cl)ccc4F)nn3)nn2)cn1 [Example 388, 1-(4-{4-[2-(5-chloro-2-fluorophenyl)acetamido]-1H-1,2,3-triazol-1-yl}butyl)-N-[(6-methylpyridin-3-yl)methyl]-1H-1,2,3-triazole-4-carboxamide] | – |

| Structure (SMILES) | pEC50 (A549 cells; A549, 72 h) | pIC50 [1] | pEC50 (A549 cells) |
| --- | --- | --- | --- |
| O=C(CN1CC(F)C1)Nc1cn(CC(F)CCn2cc(C(=O)NCc3cc(OC(F)(F)F)ccc3F)nn2)nn1 (stereo not drawn) [Example 372, 1-(3-fluoro-4-(4-(2-(3-fluoroazetidin-1-yl)acetamido)-1H-1,2,3-triazol-1-yl)butyl)-N-(2-fluoro-5-(trifluoromethoxy)benzyl)-1H-1,2,3-triazole-4-carboxamide] | – | > 7.00 | 6.30 to 7.00 |
